Measurements taken from patent US20240368120A1 (Terns Pharmaceuticals, Inc., priority 2023, published 2024).

Biological target: T1, human GLP-1R receptor (Homo sapiens, UniProt P43220)
T1 construct: expressed in transfected cells
Experiment: GLP-1R low expression cell assay (cAMP TR-FRET, CHO-K1_hGLP-1Rlow_clone10 cells)
Format: cell-based
Conditions: for EC50: cAMP TR-FRET, 30 min at 25° C.; for Emax: maximum activation relative to control GLP-1 peptide agonist
Procedure, shortened: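 CHO-K1 cells stably expressing low surface human GLP-1R (clone10), 1,000 cells/well, exposed to 10-point 3-fold compound dilutions for 30 min at 25 °C. cAMP measured by TR-FRET (Eu-cAMP tracer/ULight-anti-cAMP, 15 min). EC50 from Hill fit of duplicate percent activation relative to a parallel GLP-1 control agonist.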

T1 sequence (P43220 24-463): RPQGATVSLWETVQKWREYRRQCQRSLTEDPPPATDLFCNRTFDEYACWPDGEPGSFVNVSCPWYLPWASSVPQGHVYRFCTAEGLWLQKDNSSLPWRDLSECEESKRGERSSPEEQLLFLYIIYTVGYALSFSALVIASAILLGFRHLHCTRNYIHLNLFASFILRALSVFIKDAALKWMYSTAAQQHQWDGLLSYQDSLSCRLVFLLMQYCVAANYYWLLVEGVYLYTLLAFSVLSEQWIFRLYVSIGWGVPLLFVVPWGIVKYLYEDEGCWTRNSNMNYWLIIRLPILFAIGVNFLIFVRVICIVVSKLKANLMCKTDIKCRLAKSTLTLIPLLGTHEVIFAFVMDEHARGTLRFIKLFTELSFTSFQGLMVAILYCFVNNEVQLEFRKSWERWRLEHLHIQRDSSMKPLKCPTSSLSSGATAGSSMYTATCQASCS

Compound | EC50 [nM] | Emax [%]
COc1cc(C(=O)O)cc2c1nc(CN1CCC(c3cccc4c3O[C@@](C)(c3ccc(Cl)cn3)O4)CC1)n2C(C)C [Compound 86, (S)-2-((4-(2-(5-Chloropyridin-2-yl)-2-methylbenzo[d][1,3]dioxol-4-yl)piperidin-1-yl)methyl)-1-isopropyl-4-methoxy-1H-benzo[d]imidazole-6-carboxylic acid] | 100 to 1000 | > 85
Cn1c(CN2CCC(c3ccc(F)c(OCc4ccc(C(N)=O)cc4F)n3)CC2)nc2c(OC(F)F)cc(C(=O)O)cc21 [Compound 185, 2-((4-(6-((4-carbamoyl-2-fluorobenzyl)oxy)-5-fluoropyridin-2-yl)piperidin-1-yl)methyl)-4-(difluoromethoxy)-1-methyl-1H-benzo[d]imidazole-6-carboxylic acid] | 100 to 1000 | > 85
Cn1c(CN2CCC(c3cccc4c3O[C@H](c3ccc(Cl)cc3F)CC4)CC2)nc2c(OC(F)F)cc(C(=O)O)cc21 [Compound 368, (S)-2-((4-(2-(4-Chloro-2-fluorophenyl)chroman-8-yl)piperidin-1-yl)methyl)-4-(difluoromethoxy)-1-methyl-1H-benzo[d]imidazole-6-carboxylic acid] | > 1000 | 25 to 50
Cn1c(CN2CCC(c3cccc(F)c3OCc3ccc(C#N)cc3F)CC2)nc2c(OC(F)F)cc(C(=O)O)cc21 [Compound 182, 2-((4-(2-((4-Cyano-2-fluorobenzyl)oxy)-3-fluorophenyl)piperidin-1-yl)methyl)-4-(difluoromethoxy)-1-methyl-1H-benzo[d]imidazole-6-carboxylic acid] | 100 to 1000 | > 85
Cn1c(CN2CCC(c3cccc(OCc4ccc(Cl)cc4F)n3)CC2)nc2c(O[C@H]3C[C@H](F)C3)cc(C(=O)O)cc21 [Compound 353, 2-((4-(6-((4-Chloro-2-fluorobenzyl)oxy)pyridin-2-yl)piperidin-1-yl)methyl)-4-((1r,3r)-3-fluorocyclobutoxy)-1-methyl-1H-benzo[d]imidazole-6-carboxylic acid] | 10 to 100 | > 85
COc1cc(C(=O)O)cc2c1nc(Cc1ccc(-c3cccc(OCc4ccc(Cl)cc4F)n3)cc1F)n2C [Compound 292, 2-(4-(6-((4-Chloro-2-fluorobenzyl)oxy)pyridin-2-yl)-2-fluorobenzyl)-4-methoxy-1-methyl-1H-benzo[d]imidazole-6-carboxylic acid] | < 10 | > 85
C[C@@H](Oc1ccccc1C1CCN(Cc2nc3c(OC(F)F)cc(C(=O)O)cc3n2C)CC1)c1ccc(C#N)cc1F (single isomer, unassigned) [Compound 173] | > 1000 | < 25
Cn1c(CN2CCC(c3cccc(OCc4cnc(C#N)cc4F)n3)CC2)nc2c(OC(F)F)cc(C(=O)O)cc21 [Compound 350, 2-((4-(6-((6-Cyano-4-fluoropyridin-3-yl)methoxy)pyridin-2-yl)piperidin-1-yl)methyl)-4-(difluoromethoxy)-1-methyl-1H-benzo[d]imidazole-6-carboxylic acid] | 100 to 1000 | > 85
COc1cc(C(=O)O)cc2c1nc(CN1CCC(c3cccc(OCc4ccc(Cl)cc4F)n3)CC1)n2CF [Compound 209, 2-((4-(6-((4-Chloro-2-fluorobenzyl)oxy)pyridin-2-yl)piperidin-1-yl)methyl)-1-(fluoromethyl)-4-methoxy-1H-benzo[d]imidazole-6-carboxylic acid] | 10 to 100 | > 85
CCOc1cc(C(=O)O)cc2c1nc(CN1CCC(c3cccc4c3OC[C@H](c3ccc(C#N)cc3F)O4)CC1)n2C [Compound 277, (S)-2-((4-(2-(4-Cyano-2-fluorophenyl)-2,3-dihydrobenzo[b][1,4]dioxin-5-yl)piperidin-1-yl)methyl)-4-ethoxy-1-methyl-1H-benzo[d]imidazole-6-carboxylic acid] | > 1000 | 50 to 85
COc1cc(C(=O)O)cc2c1nc(CN1CCC(c3cccc(OCc4ccc(C#N)c5c4OCC5)n3)CC1)n2C [Compound 283, 2-((4-(6-((4-Cyano-2,3-dihydrobenzofuran-7-yl)methoxy)pyridin-2-yl)piperidin-1-yl)methyl)-4-methoxy-1-methyl-1H-benzo[d]imidazole-6-carboxylic acid] | < 10 | > 85
Cn1c(Cc2ccc(-c3cccc(OCc4ccc(Cl)cc4F)n3)cc2F)nc2c(OC(F)F)cc(C(=O)O)cc21 [Compound 198, 2-(4-(6-((4-Chloro-2-fluorobenzyl)oxy)pyridin-2-yl)-2-fluorobenzyl)-4-(difluoromethoxy)-1-methyl-1H-benzo[d]imidazole-6-carboxylic acid] | 10 to 100 | > 85
C[C@H](c1nc2c(OC(F)F)cc(C(=O)O)cc2n1C)N1CCC(c2cccc(OCc3ccc(C#N)cc3F)n2)CC1 [Compound 122, (R)-2-(1-(4-(6-((4-Cyano-2-fluorobenzyl)oxy)pyridin-2-yl)piperidin-1-yl)ethyl)-4-(difluoromethoxy)-1-methyl-1H-benzo[d]imidazole-6-carboxylic acid] | > 1000 | > 85
CCOc1cc(C(=O)O)cc2c1nc(Cc1ccc(-c3cccc(OCc4ccc(C#N)cc4F)n3)cc1F)n2C [Compound 293, 2-(4-(6-((4-Cyano-2-fluorobenzyl)oxy)pyridin-2-yl)-2-fluorobenzyl)-4-ethoxy-1-methyl-1H-benzo[d]imidazole-6-carboxylic acid] | < 10 | > 85
Cn1c(CN2CCC(c3cccc(OCc4ccccc4F)n3)CC2)nc2c(OC(F)F)cc(C(=O)O)cc21 [Compound 251, 4-(Difluoromethoxy)-2-((4-(6-((2-fluorobenzyl)oxy)pyridin-2-yl)piperidin-1-yl)methyl)-1-methyl-1H-benzo[d]imidazole-6-carboxylic acid] | 100 to 1000 | 
Cn1c(CN2CCC(c3cccc(OCc4ccc(Cl)cc4F)n3)CC2)nc2ccc(C(=O)O)c(O)c21 [Compound 341, 2-((4-(6-((4-Chloro-2-fluorobenzyl)oxy)pyridin-2-yl)piperidin-1-yl)methyl)-7-hydroxy-1-methyl-1H-benzo[d]imidazole-6-carboxylic acid] | 100 to 1000 | > 85
Cn1c(CN2CCC(c3cccc4c3O[C@@H](c3ccc(Cl)cc3F)CC4)CC2)nc2c(OC(F)F)cc(C(=O)O)cc21 [Compound 369, (R)-2-((4-(2-(4-Chloro-2-fluorophenyl)chroman-8-yl)piperidin-1-yl)methyl)-4-(difluoromethoxy)-1-methyl-1H-benzo[d]imidazole-6-carboxylic acid] | > 1000 | < 25
COc1cc(C(=O)O)cc2c1nc(CN1CCC(c3cccc4c3OC[C@@H](c3ccc(C#N)cc3F)O4)CC1)n2C [Compound 278, (R)-2-((4-(2-(4-Cyano-2-fluorophenyl)-2,3-dihydrobenzo[b][1,4]dioxin-5-yl)piperidin-1-yl)methyl)-4-methoxy-1-methyl-1H-benzo[d]imidazole-6-carboxylic acid] | 100 to 1000 | > 85
Cn1c(CN2CCC(c3cccc4c3O[C@H](c3ccc(Cl)cc3F)CO4)CC2)nc2c(OCCF)cc(C(=O)O)cc21 [Compound 333, (R)-2-((4-(3-(4-chloro-2-fluorophenyl)-2,3-dihydrobenzo[b][1,4]dioxin-5-yl)piperidin-1-yl)methyl)-4-(2-fluoroethoxy)-1-methyl-1H-benzo[d]imidazole-6-carboxylic acid] | 100 to 1000 | > 85
